In US20090099192A1, “Substituted 1H-pyrrole-2,5-diones” (Bayer CropScience AG, priority 2004, published 2009):

Key:
[1] = tested on: larvae of the mustard beetle (Phaedon cochleariae); test: Phaedon test (spray treatment); format: in vivo; conditions: for Kill rate in % after 7 d: 500 g/ha, spray, Brassica pekinensis disks
Experimental: (§1) [table] To produce a suitable preparation of active compound, 1 part by weight of active compound is mixed with the stated amounts of solvents and emulsifier, and the concentrate is diluted with emulsifier-containing water to the desired concentration. Disks of Chinese cabbage (Brassica pekinensis) are sprayed with an active compound preparation of the desired concentration and, after drying, populated with larvae of the mustard beetle (Phaedon cochleariae). After the desired period of time, the effect in % is determined. 100% means that all beetle larvae have been killed; 0% means that none of the beetle larvae have been killed.

[2] = logP determination by HPLC on reversed-phase column (C 18), EEC Directive 79/831 Annex V.A8; format: physicochemical; conditions: reversed-phase C 18, 43° C., acid range (0.1% aqueous phosphoric acid, acetonitrile), marked a)
Experimental: a) The logP values given in table 1 were determined in accordance with EEC Directive 79/831 Annex V.A8 by HPLC (High Performance Liquid Chromatography) on a reversed-phase column (C 18). Temperature: 43° C. (a) Mobile phases for the determination in the acid range: 0.1% aqueous phosphoric acid, acetonitrile; linear gradient from 10% acetonitrile to 90% acetonitrile—corresponding measurement results are marked a) in table 1. Calibration was carried out using unbranched alkan-2-ones (having 3 to 16 carbon atoms) with known logP values (determination of the logP values by the retention times using linear interpolation between two successive alkanones).

[3] = tested on: caterpillars of the army worm (Spodoptera frugiperda); test: Spodoptera frugiperda test (corn leaf disks sprayed); format: in vivo; conditions: for Kill rate in % after 7 d: 500 g/ha, spray, Zea mays leaf disks
Experimental: as §1, with “corn leaves (Zea mays)” for “Chinese cabbage (Brassica pekinensis)”, “caterpillars” for “larvae”, “army worm (Spodoptera frugiperda).” for “mustard beetle (Phaedon cochleariae).”, “caterpillars” for “beetle larvae”

[4] = tested on: larvae of the mustard beetle (Phaedon cochleariae); test: Phaedon larvae test (cabbage leaves dipped); format: in vivo
Experimental: [table] To produce a suitable preparation of active compound, 1 part by weight of active compound is mixed with the stated amount of solvent and the stated amount of emulsifier, and the concentrate is diluted with water to the desired concentration. Cabbage leaves (Brassica oleracea) are treated by being dipped into the active compound preparation of the desired concentration and populated with larvae of the mustard beetle (Phaedon cochleariae) while the leaves are still moist. After the desired period of time, the kill in % is determined. 100% means that all beetle larvae have been killed; 0% means that none of the beetle larvae have been killed.

Row | logP [2] | Compound | also measured
1 | logP = 3.77^a) | O=C1C(O)=C(c2ccccc2OC(F)(F)F)C(=O)N1C1CCCC(C(F)(F)F)C1 (stereo not drawn) [Example 190] | activity in the Phaedon test (spray treatment) [1]: good activity; Kill rate in % after 7 d [1]: 100%; activity in the Spodoptera frugiperda test (spray) [3]: good activity; Kill rate in % after 7 d [3]: 83%
2 |  | O=C1C(OCc2ccc(Cl)cc2)=C(c2ccccc2Cl)C(=O)N1C1CCCC(C(F)(F)F)C1 (stereo not drawn) [Example 203] | activity in the Phaedon test (spray treatment) [1]: good activity; Kill rate in % after 7 d [1]: 100%; activity in the Spodoptera frugiperda test (spray) [3]: good activity; Kill rate in % after 7 d [3]: 100%
3 |  | O=C1C(O)=C(c2ccc(C(F)(F)F)cc2)C(=O)N1CC(F)(F)F [Example 8] | activity in the Phaedon larvae test [4]: good activity; Kill rate in % after 7 d ([4]; 500 ppm, leaf dip, Brassica oleracea): 100%
4 | logP = 3.46^a) | O=C1C(O)=C(c2cc(F)ccc2Br)C(=O)N1C1CCCC(C(F)(F)F)C1 (stereo not drawn) [Example 198] | activity in the Phaedon test (spray treatment) [1]: good activity; Kill rate in % after 7 d [1]: 100%
5 | logP = 5.01^a) | O=C1C(OCc2ccccc2)=C(c2ccccc2Cl)C(=O)N1C1CCCC(C(F)(F)F)C1 (stereo not drawn) [Example 204] | activity in the Phaedon test (spray treatment) [1]: good activity; Kill rate in % after 7 d [1]: 100%; activity in the Spodoptera frugiperda test (spray) [3]: good activity; Kill rate in % after 7 d [3]: 100%
6 |  | CC1(C)CC(N2C(=O)C(O)=C(c3ccccc3Cl)C2=O)CC(C)(C)C1 [Example 200] | activity in the Phaedon test (spray treatment) [1]: good activity; Kill rate in % after 7 d [1]: 100%
7 | logP = 4.18^a) | CC1CC(N2C(=O)C(O)=C(c3ccccc3Cl)C2=O)CC(C)(C)C1 (stereo not drawn) [Example 199] | activity in the Phaedon test (spray treatment) [1]: good activity; Kill rate in % after 7 d [1]: 100%
8 | logP = 3.95^a) | CCOC(=O)CCN1C(=O)C(O)=C(c2cccc(OC(F)(F)F)c2)C1=O [Example 178] | 
9 | logP = 3.06^a) | O=C1C(O)=C(c2ccc(C(F)(F)F)cc2)C(=O)N1CCC(F)(F)F [Example 47] | 
10 | logP = 2.80^a) | N#Cc1ccc(C2=C(O)C(=O)N(c3ccc(C(F)(F)F)cc3)C2=O)cc1 [Example 69] | 
11 | logP = 4.80^a) | Cc1ccc(-c2ccc(Cl)cc2)cc1C1=C(O)C(=O)N(C(C)(C)c2ccccc2Cl)C1=O [Example 142] | 
12 | logP = 3.11^a) | Cc1ccccc1C1=C(O)C(=O)N(C2CCCC(C(F)(F)F)C2)C1=O (stereo not drawn) [Example 188] | activity in the Phaedon test (spray treatment) [1]: good activity; Kill rate in % after 7 d [1]: 100%; activity in the Spodoptera frugiperda test (spray) [3]: good activity; Kill rate in % after 7 d [3]: 100%
13 | logP = 3.32^a) | COc1ccccc1C1=C(O)C(=O)N(C2CCCC(C(F)(F)F)C2)C1=O (stereo not drawn) [Example 189] | activity in the Phaedon test (spray treatment) [1]: good activity; Kill rate in % after 7 d [1]: 83%
14 | logP = 4.18^a) | Cc1ccc(-c2ccc(Cl)cc2)cc1C1=C(O)C(=O)N(c2c(Cl)cccc2Cl)C1=O [Example 135] | 
15 | logP = 4.67^a) | O=C1C(O)=C(c2ccc(OC(F)(F)F)cc2)C(=O)N1Cc1cc(Cl)cc(Cl)c1 [Example 113] | 
16 | logP = 4.75^a) | Cc1ccc(-c2ccc(Cl)cc2)cc1C1=C(O)C(=O)N(Cc2ccccc2OC(F)(F)F)C1=O [Example 133] | 
17 | logP = 2.80^a) | O=C1C(O)=C(c2c(F)cccc2F)C(=O)N1c1ccc(OC(F)(F)F)cc1 [Example 50] | 
18 | logP = 3.16^a) | O=C1C(O)=C(c2c(F)cccc2F)C(=O)N1Cc1ccc(OC(F)(F)F)cc1 [Example 82] | 
19 | logP = 3.48^a) | Cc1cc(C)c(C2=C(O)C(=O)N(Cc3c(F)cccc3F)C2=O)c(C)c1 [Example 104] | 
20 | logP = 2.47^a) | O=C1C(O)=C(c2ccc(Br)cc2Cl)C(=O)N1C1CCCC(C(F)(F)F)C1 (stereo not drawn) [Example 187] | activity in the Phaedon test (spray treatment) [1]: good activity; Kill rate in % after 7 d [1]: 100%
21 | logP = 3.85^a) | CCOc1cccc(F)c1CN1C(=O)C(O)=C(c2ccc(Cl)cc2)C1=O [Example 183] | 
22 | logP = 2.61^a) | CCOc1cccc(F)c1CN1C(=O)C(O)=C(c2ccc(C#N)cc2)C1=O [Example 172] | 
23 | logP = 4.08^a) | Cc1ccc(-c2ccc(Cl)cc2)cc1C1=C(O)C(=O)N(CC2CC2)C1=O [Example 125] | 
24 | logP = 3.59^a) | O=C1C(O)=C(c2cccc(OC(F)(F)F)c2)C(=O)N1c1ccc(Cl)cc1 [Example 65] | 
25 | logP = 4.45^a) | O=C1C(O)=C(c2cccc(OC(F)(F)F)c2)C(=O)N1Cc1cc(Cl)cc(Cl)c1 [Example 117] | 

Row | logP [2] | Compound | also measured
26 | logP = 3.56^a) | O=C1C(O)=C(c2ccccc2F)C(=O)N1Cc1cc(Cl)cc(Cl)c1 [Example 110] | 
27 | logP = 3.14^a) | O=C1C(O)=C(c2ccccc2Cl)C(=O)N1c1ncc(C(F)(F)F)s1 [Example 164] | 
28 | logP = 3.70^a) | CCCCOC1CCCC(N2C(=O)C(O)=C(c3ccccc3Cl)C2=O)C1 (stereo not drawn) [Example 152] | 
29 | logP = 4.30^a) | O=C1C(O)=C(c2cccc(OC(F)(F)F)c2)C(=O)N1Cc1ccc(OC(F)(F)F)cc1 [Example 90] | 
30 | logP = 4.08^a) | Cc1ccc(-c2ccc(Cl)cc2)cc1C1=C(O)C(=O)N(C(C)C)C1=O [Example 122] | 
31 | logP = 3.30^a) | O=C1C(O)=C(c2cccc(OC(F)(F)F)c2)C(=O)N1CCC(F)(F)F [Example 48] | 
32 | logP = 3.48^a) | O=C1C(O)=C(c2c(F)cccc2F)C(=O)N1c1ccc(C(F)(F)F)cc1 [Example 66] | 
33 | logP = 2.72^a) | N#CC1(N2C(=O)C(O)=C(c3ccccc3Cl)C2=O)CCCCC1 [Example 157] | 
34 | logP = 4.94^a) | Cc1ccc(-c2ccc(Cl)cc2)cc1C1=C(O)C(=O)N(c2ccccc2F)C1=O [Example 145] | 
35 | logP = 4.89^a) | Cc1ccc(S(=O)(=O)OC2=C(c3ccccc3Cl)C(=O)N(C3CCCC(C(F)(F)F)C3)C2=O)cc1 (stereo not drawn) [Example 208] | activity in the Phaedon test (spray treatment) [1]: good activity; Kill rate in % after 7 d [1]: 100%
36 | logP = 3.45^a) | O=C1C(O)=C(c2ccccc2F)C(=O)N1Cc1ccc(OC(F)(F)F)cc1 [Example 83] | 
37 | logP = 4.15^a) | O=C1C(O)=C(c2ccc(OC(F)(F)F)cc2)C(=O)N1c1cc(Cl)cc(Cl)c1 [Example 76] | 
38 | logP = 4.41^a) | CC1(C)CC(N2C(=O)C(O)=C(c3ccccc3Cl)C2=O)CC(C)(C)C1 [Example 160] | 
39 | logP = 2.53^a) | O=C1C(O)=C(c2ccc(Cl)cc2Br)C(=O)N1C1CCCC(C(F)(F)F)C1 (stereo not drawn) [Example 186] | activity in the Phaedon test (spray treatment) [1]: good activity; Kill rate in % after 7 d [1]: 100%; activity in the Spodoptera frugiperda test (spray) [3]: good activity; Kill rate in % after 7 d [3]: 100%
40 | logP = 3.01^a) | O=C1C(O)=C(c2ccccc2[N+](=O)[O-])C(=O)N1C1CCCC(C(F)(F)F)C1 (stereo not drawn) [Example 194] | activity in the Phaedon test (spray treatment) [1]: good activity; Kill rate in % after 7 d [1]: 100%
41 | logP = 3.45^a) | O=C1C(O)=C(c2cccc(C(F)(F)F)c2)C(=O)N1c1ccc(Cl)cc1 [Example 61] | 
42 | logP = 2.31^a) | N#Cc1ccc(C2=C(O)C(=O)N(Cc3ccccc3F)C2=O)cc1 [Example 98] | 
43 | logP = 3.61^a) | CC1CCCC(N2C(=O)C(O)=C(c3ccccc3Br)C2=O)C1 (stereo not drawn) [Example 197] | activity in the Phaedon test (spray treatment) [1]: good activity; Kill rate in % after 7 d [1]: 100%; activity in the Spodoptera frugiperda test (spray) [3]: good activity; Kill rate in % after 7 d [3]: 100%
44 | logP = 3.10^a) | O=C1C(O)=C(c2ccccc2Cl)C(=O)N1c1ccc(C(F)(F)F)cc1 [Example 27] | 
45 | logP = 4.87^a) | CCOC(=O)C1CCCCC1N1C(=O)C(O)=C(c2c(C)cc(-c3ccc(Cl)cc3)cc2C)C1=O (stereo not drawn) [Example 174] | 
46 | logP = 4.75^a) | Cc1ccc(-c2ccc(Cl)cc2)cc1C1=C(O)C(=O)N(C(C)c2ccccc2Cl)C1=O (racemic) [Example 136] | 
47 | logP = 4.15^a) | O=C1C(O)=C(c2cccc(C(F)(F)F)c2)C(=O)N1Cc1ccc(OC(F)(F)F)cc1 [Example 85] | 
48 | logP = 4.65^a) | Cc1ccc(-c2ccc(Cl)cc2)cc1C1=C(O)C(=O)N(Cc2cccc(C(F)(F)F)c2)C1=O [Example 128] | 
49 | logP = 3.56^a) | O=C1C(O)=C(c2ccccc2Cl)C(=O)N1Cc1ccc(OC(F)(F)F)cc1 [Example 84] | 
50 | logP = 3.51^a) | Cc1cc(C)c(C2=C(O)C(=O)N(Cc3ccccc3F)C2=O)c(C)c1 [Example 93] | 
